The values below come from patent publication US12240862B2, “Inhibitors of peptidylarginine deiminases” (Gilead Sciences, Inc., priority 2020, dated 2025).

T1 sequence (Q9UM07 2-663): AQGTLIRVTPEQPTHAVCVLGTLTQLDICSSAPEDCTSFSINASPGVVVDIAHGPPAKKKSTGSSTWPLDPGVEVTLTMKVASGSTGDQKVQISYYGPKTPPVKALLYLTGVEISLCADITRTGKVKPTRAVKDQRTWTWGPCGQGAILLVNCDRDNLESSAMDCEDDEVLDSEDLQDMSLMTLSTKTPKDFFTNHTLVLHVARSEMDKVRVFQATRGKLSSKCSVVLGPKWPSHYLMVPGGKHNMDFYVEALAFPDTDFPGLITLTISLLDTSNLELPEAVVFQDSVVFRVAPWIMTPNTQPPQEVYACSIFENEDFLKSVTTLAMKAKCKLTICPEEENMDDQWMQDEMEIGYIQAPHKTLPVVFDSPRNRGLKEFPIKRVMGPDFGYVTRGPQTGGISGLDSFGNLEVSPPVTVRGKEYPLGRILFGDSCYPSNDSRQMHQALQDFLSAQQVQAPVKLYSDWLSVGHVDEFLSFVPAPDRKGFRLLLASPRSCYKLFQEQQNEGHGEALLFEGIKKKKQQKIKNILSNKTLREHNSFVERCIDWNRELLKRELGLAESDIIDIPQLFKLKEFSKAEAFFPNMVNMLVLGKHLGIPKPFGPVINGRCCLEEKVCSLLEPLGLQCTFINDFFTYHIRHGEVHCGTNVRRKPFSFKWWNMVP

The assay has as its target T1, human PAD4 (Homo sapiens, UniProt Q9UM07).
T1 construct: human PAD4 (NM_012387), A2P663, was PCR amplified; His-SUMO (N, cleaved yes); made in house; host or cells: E. coli BL21(DE3)
As to the kind of experiment: In vitro PAD4 BAEE biochemical assay. Particulars: human PAD4, BAEE substrate; 5 nM PAD4, 2 mM calcium chloride, 3 mM BAEE; geometric mean of multiple experiments. In outline: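 Ammonia generated from BAEE serves as the readout, measured by o-phthalaldehyde after EDTA termination. Final conditions: 5 nM human PAD4 (SUMO tag cleaved), 2 mM CaCl2, 3 mM BAEE, pH 7.6 MOPS buffer, 25 °C for 2 h following a 30-min compound preincubation.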
The IC50 is the midpoint of a concentration-inhibition curve. In the case of `COc1cc(C(=O)N2C[C@H]3CC(F)[C@@H]2[C@@H]3N)cc2nc(-c3cc4ccc(N(C(F)F)S(C)(=O)=O)nc4n3CC3CC3)c(C)n12` (stereo partly drawn) [Example 361, N-[2-[7-[(1S,4R,7R)-7-amino-6-fluoro-2-azabicyclo[2.2.1]heptane-2-carbonyl]-5-methoxy-3-methyl-imidazo[1,2-a]pyridin-2-yl]-1-(cyclopropylmethyl)pyrrolo [2,3-b]pyridin-6-yl]-N-(difluoromethyl) methanesulfonamide], the 50% inhibitory concentration (IC50) turned out to be 258 nM.

In the case of `COc1cc(C(=O)N[C@H]2CNCC[C@@H]2OC)cc2nc(-c3cc4ccc(N(C(F)F)S(C)(=O)=O)nc4n3CC3CC3)c(C)n12` [Example 285, 2-[1-(cyclopropylmethyl)-6-[difluoromethyl (methylsulfonyl)amino]pyrrolo[2,3-b]pyridin-2-yl]-5-methoxy-~ {N}-[(3~{S},4~{S})-4-methoxypiperidin-3-yl]-3-methylimidazo[1,2-a] pyridine-7-carboxamide], the IC50 came to 14000 nM. Turning to `COc1cc(C(=O)N2CC[C@H]3CCNC[C@H]32)cc2nc(-c3cc4ccc(N(C(F)F)S(C)(=O)=O)nc4n3CC3CC3)c(C)n12` [Example 415, ~{N}-[2-[7-[(3~{a}~{R},7~{a}~{S})-2,3,3~{a},4,5,6,7,7~{a}-octahydropyrrolo[2,3-c]pyridine-1-carbonyl]-5-methoxy-3-methylimidazo[1,2-a]pyridin-2-yl]-1-(cyclopropylmethyl)pyrrolo [2,3-b]pyridin-6-yl]-~{N}-(difluoromethyl) methanesulfonamide], the 50% inhibitory concentration (IC50) came to 27900 nM. With `COc1cc(C(=O)N2[C@H]3CC[C@@H]2[C@H](N)C3)cc2nc(-c3cc4ccc(C(C)C#N)nc4n3CC3CC3)c(C)n12` (stereo partly shown) [Example 568, 2-[2-[7-[(1~{R},2~{R}, 4~{S})-2-amino-7-azabicyclo[2.2.1]heptane-7-carbonyl]-5-methoxy-3-methylimidazo[1,2-a]pyridin-2-yl]-1-(cyclopropylmethyl)pyrrolo [2,3-b]pyridin-6-yl] propanenitrile] the figure was 133 nM; with `COc1cc(C(=O)N2[C@H]3CC[C@@H]2[C@H](N)C3)cc2nc(-c3cc4ccc([C@@H](C)N5CCCCC5=O)nc4n3CC3CC3)c(C)n12` [Example 271], 35.6 nM; with `COc1cc(C(=O)N2[C@H]3CC[C@@H]2[C@H](N)C3)cc2nc(-c3cc4ccc([C@@H](C)NC(=O)c5cnn(C)c5)nc4n3CC3CC3)c(C)n12` [Example 116, ~{N}-[(1~{R})-1-[2-[7-[(1~{R},2~{R},4~{S})-2-amino-7-azabicyclo[2.2.1]heptane-7-carbonyl]-5-methoxy-3-methylimidazo [1,2-a]pyridin-2-yl]-1-(cyclopropylmethyl)pyrrolo [2,3-b]pyridin-6-yl]ethyl]-1-methylpyrazole-4-carboxamide], 34.8 nM. With `COc1cc(C(=O)N2[C@H]3CC[C@@H]2[C@H](N)C3)cc2nc(-c3cc4ccc([C@@H](C)NC(=O)C(C)C)nc4n3CC3CC3)c(C)n12` [Example 89, ~{N}-[(1~{R})-1-[2-[7-[(1~{R},2~{R},4~{S})-2-amino-7-azabicyclo[2.2.1]heptane-7-carbonyl]-5-methoxy-3-methylimidazo [1,2-a]pyridin-2-yl]-1-(cyclopropylmethyl)pyrrolo [2,3-b]pyridin-6-yl]ethyl]-2-methylpropanamide] the figure was 40.1 nM; with `COc1cc(C(=O)N2[C@H]3CC[C@@H]2[C@H](N)C3)cc2nc(-c3cc4ccc([C@@H](C)NC(=O)C5CC(F)(F)C5)nc4n3CC3CC3)c(C)n12` [Example 85, ~{N}-[(1~{R})-1-[2-[7-[(1~{R},2~{R},4~{S})-2-amino-7-azabicyclo[2.2.1]heptane-7-carbonyl]-5-methoxy-3-methylimidazo [1,2-a]pyridin-2-yl]-1-(cyclopropylmethyl)pyrrolo [2,3-b]pyridin-6-yl]ethyl]-3,3-difluorocyclobutane-1-carboxamide], 28.7 nM; with `COc1cc(C(=O)N2[C@H]3CC[C@@H]2[C@H](N)C3)cc2nc(-c3cc4ccc(C(C)CC(=O)NC(C)(C)C)nc4n3CC3CC3)c(C)n12` (stereo partly shown) [Example 521, 3-[2-[7-[(1~{R},2~{R}, 4~{S})-2-amino-7-azabicyclo[2.2.1]heptane-7-carbonyl]-5-methoxy-3-methylimidazo[1,2-a]pyridin-2-yl]-1-(cyclopropylmethyl)pyrrolo [2,3-b]pyridin-6-yl]-~{N}-~{tert}-butylbutanamide], 122 nM. With `COc1cc(C(=O)N2CCC[C@@H](N)C2)cc2nc(-c3cc4ccc(C(C)CC(=O)N(C)C)nc4n3CC3CC3)c(C)n12` (stereo partly shown) [Example 536, 3-[2-[7-[(3~{R})-3-aminopiperidine-1-carbonyl]-5-methoxy-3-methylimidazo[1,2-a]pyridin-2-yl]-1-(cyclopropylmethyl)pyrrolo[2,3-b]pyridin-6-yl]-~{N},~{N}-dimethylbutanamide] the figure was 128 nM; with `COc1cc(C(=O)N2[C@H]3CC[C@@H]2[C@H](N)C3)cc2nc(-c3cc4ccc(C(NC(=O)C(C)(C)C)C(F)(F)F)nc4n3CC3CC3)c(C)n12` (stereo partly shown) [Example 192, ~{N}-[1-[2-[7-[(1~{R},2~{R},4~{S})-2-amino-7-azabicyclo[2.2.1]heptane-7-carbonyl]-5-methoxy-3-methylimidazo [1,2-a]pyridin-2-yl]-1-(cyclopropylmethyl)pyrrolo [2,3-b]pyridin-6-yl]-2,2,2-trifluoroethyl]-2,2-dimethylpropanamide], 689 nM; with `COc1cc(C(=O)N2C[C@H]3CCCN[C@H]3C2)cc2nc(-c3cc4ccc(N(C(F)F)S(C)(=O)=O)nc4n3CC3CC3)c(C)n12` [Example 336, ~{N}-[2-[7-[(4~{a}~{R},7~{a}~{R})-1,2,3,4,4~{a},5,7,7~{a}-octahydropyrrolo[3,4-b]pyridine-6-carbonyl]-5-methoxy-3-methylimidazo[1,2-a]pyridin-2-yl]-1-(cyclopropylmethyl)pyrrolo [2,3-b]pyridin-6-yl]-~{N}-(difluoromethyl) methanesulfonamide], 484 nM.

`CCc1ccc2cc(-c3nc4cc(C(=O)N5[C@H]6CC[C@@H]5[C@H](N)C6)cc(OC)n4c3C3CCC3)n(CC3CC3)c2n1` [Example 577, [(1~{R},2~{R},4~{S})-2-amino-7-azabicyclo [2.2.1]heptan-7-yl]-[3-cyclobutyl-2-[1-(cyclopropylmethyl)-6-ethylpyrrolo[2,3-b]pyridin-2-yl]-5-methoxyimidazo [1,2-a]pyridin-7-yl]methanone]: the IC50 was 996 nM. With `COc1cc(C(=O)N2[C@H]3CC[C@@H]2[C@H](N)C3)cc2nc(-c3cc4ccc(N5CCCCS5(=O)=O)nc4n3CC3CC3)c(C)n12` [Example 474, [(1~{R},2~{R},4~{S})-2-amino-7-azabicyclo [2.2.1]heptan-7-yl]-[2-[1-(cyclopropylmethyl)-6-(1,1-dioxothiazinan-2-yl)pyrrolo [2,3-b]pyridin-2-yl]-5-methoxy-3-methylimidazo [1,2-a]pyridin-7-yl]methanone] the figure was 44.2 nM; with `COc1cc(C(=O)N2[C@H]3CC[C@@H]2[C@H](N)C3)cc2nc(-c3cc4ccc([C@@H](C)NC(=O)CC5(OC)CCC5)nc4n3CC3CC3)c(C)n12` [Example 32, ~{N}-[(1~{R})-1-[2-[7-[(1~{R},2~{R},4~{S})-2-amino-7-azabicyclo [2.2.1]heptane-7-carbonyl]-5-methoxy-3-methylimidazo[1,2-a]pyridin-2-yl]-1-(cyclopropylmethyl)pyrrolo[2,3-b]pyridin-6-yl]ethyl]-2-(1-methoxycyclobutyl) acetamide], 83 nM; with `COc1cc(C(=O)N2[C@H]3CC[C@@H]2[C@H](N)C3)cc2nc(-c3cc4ccc([C@@H](C)NC(=O)C5(OC)CCC5)nc4n3CC3CC3)c(C)n12` [Example 41, ~{N}-[(1~{R})-1-[2-[7-[(1~{R},2~{R},4~{S})-2-amino-7-azabicyclo [2.2.1]heptane-7-carbonyl]-5-methoxy-3-methylimidazo [1,2-a]pyridin-2-yl]-1-(cyclopropylmethyl)pyrrolo[2,3-b]pyridin-6-yl]ethyl]-1-methoxycyclobutane-1-carboxamide], 27 nM. With `COc1cc(C(=O)N2[C@H]3CC[C@@H]2[C@H](N)C3)cc2nc(-c3cc4ccc([C@@H](C)NC(=O)C(C)(C)OC)nc4n3CC3CC3)c(C)n12` [Example 172, ~{N}-[(1~{R})-1-[2-[7-[(1~{R},2~{R},4~{S})-2-amino-7-azabicyclo[2.2.1]heptane-7-carbonyl]-5-methoxy-3-methylimidazo [1,2-a]pyridin-2-yl]-1-(cyclopropylmethyl)pyrrolo [2,3-b]pyridin-6-yl]ethyl]-2-methoxy-2-methylpropanamide] the figure was 98.3 nM; with `COc1cc(C(=O)N2CCC3CCNCC32)cc2nc(-c3cc4ccc(N(C(F)F)S(C)(=O)=O)nc4n3CC3CC3)c(C)n12` (stereo not shown) [Example 322, ~{N}-[2-[7-(2,3,3~{a}, 4,5,6,7,7~ {a}-octahydropyrrolo[2,3-c]pyridine-1-carbonyl)-5-methoxy-3-methylimidazo [1,2-a]pyridin-2-yl]-1-(cyclopropylmethyl)pyrrolo [2,3-b]pyridin-6-yl]-~{N}-(difluoromethyl) methanesulfonamide], 258 nM. With `COc1cc(C(=O)N2[C@H]3CC[C@@H]2[C@H](N)C3)cc2nc(-c3cc4ccc([C@@H](C)N5C(=O)CCC5C)nc4n3CC3CC3)c(C)n12` (stereo partly shown) [Example 269, 1-[(1~{R})-1-[2-[7-[(1~{R},2~{R},4~{S})-2-amino-7-azabicyclo[2.2.1]heptane-7-carbonyl]-5-methoxy-3-methylimidazo [1,2-a]pyridin-2-yl]-1-(cyclopropylmethyl)pyrrolo [2,3-b]pyridin-6-yl]ethyl]-5-methylpyrrolidin-2-one] the figure was 67.8 nM.
